Measurements taken from patent US6352958B1, “Cycloimido-substituted benzofused heterocyclic herbicides” (FMC Corporation, priority 1997, dated 2002).

Experiments:
Format in all cases: in vivo
[1] = test system: common cocklebur (Xanthium strumarium L.); experiment: Preemergence herbicidal activity, cocklebur; details: Xanthium strumarium, pre-emergence, Rate of Application 0.3 Kg/Ha, examined after 12-17 days, read-out: PREEMERGENCE HERBICIDAL ACTIVITY (% CONTROL) XANPE
[2] = test system: soybean (Glycine max var. Winchester); experiment: Postemergence herbicidal activity, soybean; details: Glycine max, post-emergence, rate of application 0.3 Kg/Ha, rated after 12-17 days, read-out: Postemergence herbicidal activity (% control) SOY
[3] = test system: common chickweed (Stellaria media); experiment: Postemergence herbicidal activity, chickweed; details: Stellaria media, post-emergence, rate of application 0.3 Kg/Ha, rated after 12-17 days, read-out: Postemergence herbicidal activity (% control) STEME
[4] = test system: morningglory (Ipomea lacunosa or Ipomea hederacea); experiment: Preemergence herbicidal activity, morningglory; details: Ipomoea, pre-emergence, Rate of Application 0.3 Kg/Ha, examined after 12-17 days, read-out: PREEMERGENCE HERBICIDAL ACTIVITY (% CONTROL) IPOSS
[5] = test system: green foxtail (Setaria viridis); experiment: Preemergence herbicidal activity, green foxtail; details: Setaria viridis, pre-emergence, Rate of Application 0.3 Kg/Ha, examined after 12-17 days, read-out: PREEMERGENCE HERBICIDAL ACTIVITY (% CONTROL) SETVI
[6] = test system: common chickweed (Stellaria media); experiment: Preemergence herbicidal activity, chickweed; details: Stellaria media, pre-emergence, Rate of Application 0.3 Kg/Ha, examined after 12-17 days, read-out: PREEMERGENCE HERBICIDAL ACTIVITY (% CONTROL) STEME
[7] = test system: field corn (Zea mays var. Pioneer 3732); experiment: Preemergence herbicidal activity, corn; details: Zea mays, pre-emergence, Rate of Application 0.3 Kg/Ha, examined after 12-17 days, read-out: PREEMERGENCE HERBICIDAL ACTIVITY (% CONTROL) CRN
[8] = test system: velvetleaf (Abutilon theophrasti); experiment: Preemergence herbicidal activity, velvetleaf; details: Abutilon theophrasti, pre-emergence, Rate of Application 0.3 Kg/Ha, examined after 12-17 days, read-out: PREEMERGENCE HERBICIDAL ACTIVITY (% CONTROL) ABUTH
[9] = test system: velvetleaf (Abutilon theophrasti); experiment: Postemergence herbicidal activity, velvetleaf; details: Abutilon theophrasti, post-emergence, rate of application 0.3 Kg/Ha, rated after 12-17 days, read-out: Postemergence herbicidal activity (% control) ABUTH
[10] = test system: wheat (Triticum aestivum var. Lew); experiment: Preemergence herbicidal activity, wheat; details: Triticum aestivum, pre-emergence, Rate of Application 0.3 Kg/Ha, examined after 12-17 days, read-out: PREEMERGENCE HERBICIDAL ACTIVITY (% CONTROL) WHT
[11] = test system: wheat (Triticum aestivum var. Lew); experiment: Postemergence herbicidal activity, wheat; details: Triticum aestivum, post-emergence, rate of application 0.3 Kg/Ha, rated after 12-17 days, read-out: Postemergence herbicidal activity (% control) WHT
[12] = test system: Johnsongrass (Sorghum halepense); experiment: Preemergence herbicidal activity, johnsongrass; details: Sorghum halepense, pre-emergence, Rate of Application 0.3 Kg/Ha, examined after 12-17 days, read-out: PREEMERGENCE HERBICIDAL ACTIVITY (% CONTROL) SORHA
[13] = test system: morningglory (Ipomea lacunosa or Ipomea hederacea); experiment: Postemergence herbicidal activity, morningglory; details: Ipomoea, post-emergence, rate of application 0.3 Kg/Ha, rated after 12-17 days, read-out: Postemergence herbicidal activity (% control) IPOSS

Row | Compound | inhibition at 300 g/ha [1] | inhibition at 300 g/ha [2] | inhibition at 300 g/ha [3] | inhibition at 300 g/ha [4] | inhibition at 300 g/ha [5] | inhibition at 300 g/ha [6] | inhibition at 300 g/ha [7] | inhibition at 300 g/ha [8] | inhibition at 300 g/ha [9] | inhibition at 300 g/ha [10] | inhibition at 300 g/ha [11] | inhibition at 300 g/ha [12] | inhibition at 300 g/ha [13]
1 | Cn1c(C(F)(F)F)cc(=O)n(-c2c(F)cc(Cl)c3[nH]c(C(F)(F)F)cc23)c1=O [Compound 500, 3-(7-CHLORO-5-FLUORO-2-TRIFLUOROMETHYLINDOL-4-YL)-1-METHYL-6-TRIFLUOROMETHYL-2,4(1H,3H)-PYRIMIDINEDIONE] | 100% | 95% | 90% | 100% | 100% | 100% | 90% | 100% | 100% | 75% | 65% | 100% | 100%
2 | CC(C)c1nc2c(-n3c(=O)cc(C(F)(F)F)n(C)c3=O)c(F)cc(Cl)c2o1 [Compound 28, 1-METHYL-6-TRIFLUOROMETHYL-3-[7-CHLORO-5-FLUORO-2-(1-METHYLETHYL)BENZOXAZOL4-YL]-2,4(1H,3H)-PYRIMIDINEDIONE] | 100% | 100% | 100% | 100% | 100% | 100% | 95% | 100% | 100% | 100% | 80% | 100% | 100%
3 | CCc1nc2c(-n3c(=O)cc(C(F)(F)F)n(C)c3=O)c(F)cc(Cl)c2[nH]1 [Compound 367, 3-(4-CHLORO-2-ETHYL-6-FLUOROBENZIMIDAZOL-7-YL)-1-METHYL-6-TRIFLUOROMETHYL-2,4(1H,3H)-PYRIMIDINEDIONE] | 100% | 100% | 100% | 100% | 100% | 100% | 100% | 100% | 100% | 95% | 100% | 100% | 100%
